Like-named read-outs stand apart in the source and are kept apart here.
Columns and labels:
[1] = 105° C
Description: The susceptibility of the peroxycarbonate to heat decomposition can be ascertained from its half life and the foaming temperature thereof.

[2] = Foaming decomposition temperature; assay type: physicochemical
[3] = prior art peroxide; cited from earlier work
[4] = prior art peroxide, peroxy group in the copolymer; cited from earlier work

Row | Compound | Half life ([1]; solvent benzene) [h] | Half life ([1]; solvent toluene) [h] | foaming decomposition temperature [2] [°C] | storage stability, in words [3] | decomposition activity, in words [4]
1 | CC(C)OC(=O)OOC(C)(C)C [t-butylperoxy isopropyl carbonate, reference compound] | 4.1 |  |  |  | 
2 | C=CCOC(=O)OOC(C)(C)C [t-butylperoxy allyl carbonate] | 3.9 | 6.9 | 117.5 |  | 
3 | butyl peroxymethacrylate |  |  |  | not stable during storage | 
4 | t-hexylperoxy allyl carbonate | 3.8 |  | 107.3 |  | 
5 | C/C=C/C(=O)OOC(C)(C)C [t-butylperoxycrotonate] |  |  |  |  | active at low temperature
6 | t-hexylperoxy methallyl carbonate | 2.9 |  | 115.5 |  | 
7 | C=CCOC(=O)OOC(C)(C)CC(C)(C)C [1,1,3,3-tetramethylbutylperoxy allyl carbonate] | 1.4 |  | 103.5 |  | 
8 | C=C(C)COC(=O)OOC(C)(C)CC(C)(C)C [1,1,3,3-tetramethylbutylperoxy methallyl carbonate] | 1.1 |  | 106.5 |  | 
9 | CC(C)C(=O)OOC(C)(C)C [t-butyl peroxy isobutyrate, t-butyl peroxyisobutyrate, reference compound] | 0.37 |  |  |  | 
10 | C=C(C)COC(=O)OOC(C)(C)C [t-butylperoxy methallyl carbonate] | 2.9 | 4.9 | 117.5 |  | 
